l = locked nucleic acid (LNA); d = 2'-deoxy (DNA)
Columns and labels:
[1] = system: Human primary proximal tubule epithelial cells (PTEC); assay: EGF assay, supernatant of primary PTEC cells
Description: Prior to treatment with oligonucleotides the primary PTEC cells were seeded into collagen I-coated 96-well plates (Corning, 356407) at a density of 40 000 and 20 000 cells/well respectively in PTEC medium and grown until confluence.
Oligonucleotides were dissolved in PBS and added to the cell culture at the given concentration, such as 10, 30 or 100 μM. The total volume of each well was 100 μl. PBS served as vehicle control.
When extra cellular markers, like EGF and KIM-1, were analyzed following the oligonucleotide treatment the medium was collected and stored at −20° C. until further analysis. […] The collected medium was stored at −20° C.
For analysis of human EGF, cell supernatants were thawed on ice, diluted 1:2 and 1:10 in sample dilution buffer (BioRad catalog # M60-009RDPD) and analyzed by Luminex®-based ELISA using human EGF beads (Bio-Plex Pro™ Human Cancer Biomarker Panel 2 EGF Set#171BC603M), or followed by analysis using the Bio-Plex® 200 Systems (BioRad) according to the manufacturer's instructions. Data are reported as mean concentrations and standard deviations of triplicate wells. An increase of EGF levels above 200% was considered as predictive for nephrotoxicity.

A549 cells = assay: EGF assay, A549 cells transfected with oligonucleotide; type: cell-based, human; details: A549, 48 hours after transfection;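 note: values as percent of saline control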
Description: A549 cells (ATCC CCL-185) were cultivated according to the manufacturer's instructions in A549 medium [F-12K Nut Mix (Gibco, 21127-022), 1% penicillin/streptomycin (Gibco: 15140-122), 10% FBS (Gibco 16000-044)].
Prior to treatment with oligonucleotides the A549 cells were seeded in 96 well plates at 3′000 cells per well in A549 regular medium and grown until 60% confluence. […]
A549 were cultivated as described in the “Materials and methods” section. At after at 50-60% confluence the oligonucleotides were transfected into the cells using 0.5 μl Lipofectamin (Invitrogen, 11668-019) in 25 μl OptiMEM® (GIBCO 31985062) and 1 ng or 10 ng oligonucleotide in the same volume OptiMEM. The cells were incubated over night at 37° C. The medium was changed using A459 regular medium+10 ng/ml EGF. 48 hours after transfection the medium was collected for EGF measurements and the cells were harvested for ATP measurements.

| Substance | EGF ([1]; Day 3, 3 μM) [% saline] | EGF ([1]; Day 3, 10 μM) [% saline] | EGF ([1]; Day 3, 30 μM) [% saline] | EGF ([1]; Day 3, 100 μM) [% saline] | EGF ([1]; Day 6, 3 μM) [% saline] | EGF ([1]; Day 6, 10 μM) [% saline] | EGF ([1]; Day 6, 30 μM) [% saline] | EGF ([1]; Day 6, 100 μM) [% saline] | EGF (A549 cells; 1 ng oligonucleotide) [% saline] | EGF (A549 cells; 10 ng oligonucleotide) [% saline] |
| --- | --- | --- | --- | --- | --- | --- | --- | --- | --- | --- |
| TGCtacaaaacCCA (antisense TGCTACAAAACCCA; sugars from the 5' end l3 d8 l3, backbone and methylation of C not given here) [Compound 3-1] | 114 | 139 | 134 | 269 | 152 | 286 | 653 | 915 | 99 | 199 |
| GCtgtgtgagcttGG (antisense GCTGTGTGAGCTTGG; sugars from the 5' end l2 d11 l2, backbone and methylation of C not given here) [Compound 4-1] | 198 | 323 | 373 | 631 | 525 | 1171 | 1588 | 1403 | 132 | 211 |
